“Also recorded” adds a separate entry of the source.
Key:
[1] = test system: THP-1 human monocytic cell line; assay: LPS-stimulated THP-1 macrophage cytokine production (LEGENDplex); type: cell-based
Procedure: A specific anti-inflammatory effect or activity of a compound is proven, if the compound can decrease the production of one of IL-1B, IL-6 and TNFα in human THP1 macrophages following LPS stimulation, as determined by a standard assay: THP-1 human monocytic cell lines are treated with 100 nM of Phorbol 12-myristate 13-acetate (PMA) for 48 h to induce mature macrophage-like state. Cells are then stimulated with 100 ng/ml of LPS in the absence and presence of 500 μM of compound. After 6 hours, supernatants of treated and untreated cells are collected, and cytokine levels determined using the Human Inflammatory panel LEGENDplex Human Pro-inflammatory Chemokine Panel (Cat. No. 740118). A positive result is considered if the compound is capable of reduce or block the production of IL-1β, IL-6, and TNFα in human THP1 macrophages after LPS stimulation.
Following cells were treated with [10 ng/ml] LPS in the absence and presence 10, 100 and 500 μM of SCA-744. Cytokine levels were determined by LEGENDplex™ Human Inflammation Panel assay from BioLegend. The bar heights represent the concentration means compared to LPS alone of 3 independent experiments carried out in triplicates.
Cells were treated with 100 nM of Phorbol 12-myristate 13-acetate (PMA) for 48 h to induce mature macrophage-like state. Cells were then stimulated with 100 ng/ml of Lipopolysaccharides (LPS) in the absence and presence of 500 μM of SCA-744. After 6 hours, supernatants of treated and untreated cells were collected and the levels of three major pro-inflammatory cytokines TNF-α, IL-6 and IL-1ß were determined using the Human Inflammatory panel of LEGENDPLEX Multi-Analyte Flow assay.

[2] = test system: SH-SY5Y neuroblastoma cells; assay: MPP+ induced mitochondria fragmentation in SH-SY5Y cells (MitoTracker confocal imaging); type: cell-based, human; details: MPP+ 0.5 mM 48 hours, SCA-744 500 μM
Procedure: To test whether SCA-744 would be able to rescue cells from oxidative damage induced by mitochondrial dysfunction, SH-SY5Y neuroblastoma cells were treated with 1-methyl-4-phenylpyridinium (MPP+) (0.5 mM, 48 hours) to induce mitochondria fragmentation. […] To visualize mitochondria, cells were incubated with MitoTracker Red CMXRos, a mildly thiol-reactive chloromethyl moiety for mitochondria labelling (MitoTracker Red CMXRos #9082 Cell Signaling), fixed and mounted. Mitochondrial morphology was imaged with a laser scanning confocal microscope LSM710 Zeiss.

[3] = test system: Osteopontin (OPN); assay: 15N-1H HSQC NMR binding to osteopontin
Procedure: In order to verify the predicted heparan sulfate mimicking activity of SCA-744, its physical interaction was probed with a prototypical HS-binding protein Osteopontin (OPN), a component of the extracellular matrix (ECM). To this end, NMR spectroscopy was used to directly probe the interaction and map the location of the interaction site along the protein backbone. The experimental strategy was as follows: First, ^15N-labelled OPN was prepared following well-established molecular biology technology techniques. Individual residue positions are directly monitored via the so-called ^15N-^1H Heteronuclear Single-Quantum Coherence (HSQC) spectroscopy, where individual cross peaks in the two-dimensional (2D) frequency spectrum corresponds to individual residue positions (amino acids) of the protein. Ligand binding changes the chemical environment of residues located in the binding site and leads to a change in the HSQC spectrum. Since the signal assignment is available, the residue positions which are affected by ligand binding can easily be identified by comparing HSQC spectra of the apo (ligand-free) and ligand-bound state of the protein (FIG. 7A). […] It is very convenient to analyze the chemical shift changes (induced by ligand binding) as a function of residue positions (FIG. 7B,C). Residues that display the largest chemical shift changes are typically part of the binding interface. […] Therefore, it can be concluded that SCA-744 and HS share the same ligand interaction sites and therefore are in competition for binding.

[4] = test system: C57BL/6J mice; assay: LPS-induced acute lung inflammation model: respiratory function (plethysmography); type: in vivo; details: 100 μg LPS intratracheal, measured 24 h after; SCA-744 60 mg/kg i.p. 4 doses; dexamethasone 5 mg/kg ip. 2 doses
Procedure: Acute lung inflammation was induced by intratracheal administration of 100 μg LPS (Escherichia coli O111:B4; Sigma Aldrich, St. Louis, MO, USA) dissolved in 60 μl sterile phosphate buffered saline (PBS) under ketamine (120 mg/kg ip.; Calypsol, Gedeon Richter Plc., Budapest, Hungary) and xylazine (6 mg/kg ip.; Sedaxylan, Eurovet Animal Health B.V., Bladel, Netherlands) anaesthesia. 24 h after administration, respiratory function parameters were assessed, and lung samples were harvested for histopathological evaluation.
SCA-744 (60 mg/kg) and its vehicle were injected intraperitoneally (i.p.), 24 h, 12 h, 20 min before and 12 h after intratracheal administration of LPS. […] 24 h and 20 min before LPS treatment. Respiratory function measurement was performed 24 h after LPS administration
Buxco FinePoint Non-invasive Airway Mechanics (NAM) double chamber plethysmography (DSI Harvard Bioscience Inc.) was used to monitor ventilatory and bronchoconstriction parameters in awake, restrained animals without the use of anesthesia. The plethysmograph measures the nasal and thoracic flows independently. […] After 10 minutes of acclimatization period baseline pulmonary functions were assessed, such as the frequency, tidal volume, minute ventilation, expiratory/inspiratory time, peak expiratory/inspiratory flow, and specific airway resistance, a measure of bronchoconstriction.

[5] = test system: HELA cells; assay: Protection from H2O2 induced stress; type: cell-based
Procedure: Using an incubation time of 24 h, it was sufficient to determine the toxicity and rescue effect of SCA-744 in HELA cells.

Structure (SMILES): O=S(=O)(O)c1cc2c(O)c(c1)Cc1cc(S(=O)(=O)O)cc(c1O)Cc1cc(S(=O)(=O)O)cc(c1O)Cc1cc(S(=O)(=O)O)cc(c1O)C2 [SCA-744, 4-sulfocalix[4]arene]
- inhibition of LPS-induced TNF-α, IL-ß and IL-6 ([1]; 10 ng/ml LPS, 10, 100 and 500 μM, FIG. 2): Dose-dependent inhibition
- pro-inflammatory cytokine levels (TNF-α, IL-6, IL-1ß) in culture supernatant ([1]; 500 μM, 100 ng/ml LPS, 6 hours, PMA-differentiated THP-1): significantly decreased
- mitochondria integrity after MPP+ [2]: protects against cell death and restores mitochondria integrity; also recorded: cells maintained the integrity of mitochondria
- binding to OPN (HSQC spectra ligand-free vs ligand-bound) ([3]; 15N-labelled OPN): binds to a heparan sulfate binding protein, osteopontin; also recorded: unambigious proof for SCA-744 binding to OPN
- binding sites on OPN (chemical shift changes by residue) ([3]; HS compared with SCA-744): overlapping binding sites
- respiratory function parameters (fBPM, FRC, Te, Rpef, Ti) versus control animals [4]: significantly improved; also recorded: did not induce statistically significant alterations
- EC50 ([5]; Homo sapiens, HELA, 24 h incubation, H2O2 50 mM, read-out: EC50 rescue from H2O2 toxicity): 200 nM
- protection from H2O2 induced damage ([5]; mammalian cells, FIG. 20): protects against oxidative stress from H2O2 induced damage

Reference: patent publication US12714682B2, “Calixarene compounds and uses thereof” (UNIVERSITÄT WIEN, priority 2019, dated 2026)
